Reference: publication PMC8752837, “Structural basis of BAK activation in mitochondrial apoptosis initiation” (Nature Communications, 2022)
Positions count from the first letter of the chain named.

What was measured:
I81R BAK = target: T1, I81R BAK (Homo sapiens, UniProt Q16611, I81R); test: Isothermal titration calorimetry with mutant BAK; type: binding; details: rebuttal, earlier Figures 7c, S10d
T1 construct: To generate tevBAK (residues 22–186), we cleaved off the histidine tag with TEV protease; His tag (vector pNIC28-Bsa4) (N, cleaved yes); made in house; host or cells: E. coli T7 Express pLac I/Y
T1 sequence (Q16611 22-186 I81R): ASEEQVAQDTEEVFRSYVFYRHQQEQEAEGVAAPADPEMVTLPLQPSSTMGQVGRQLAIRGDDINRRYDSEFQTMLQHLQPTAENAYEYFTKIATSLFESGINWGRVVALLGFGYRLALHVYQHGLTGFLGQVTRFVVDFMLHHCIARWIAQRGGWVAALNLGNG
Experimental: Protein samples were exchanged into 20 mM HEPES, 100 mM NaCl and 1 mM TCEP prior to the experiment. Titrations were performed by first injecting 0.5 μl of 250 or 500 µM BID BH3 peptides into a solution of 20 or 50 µM BAK followed by additional 2 μl injections. […] Results were analyzed using Origin software (OriginLab) provided by MicroCal. Binding constants (KD) and thermodynamic parameters were calculated from the average of two or three individual titrations by fitting the data to a single site binding model using a nonlinear least-squares fitting algorithm.

I81R(3) BAK = target: T2, I81R(3) BAK (Homo sapiens, UniProt Q16611, I81R); test: Liposome permeabilization assay: BH3 peptide activation of I81R(3) BAK receptor; type: biochemical; details: 200 nM protein receptor; rebuttal, earlier Figure 7c; read-out: EC50 in liposome permeabilization upon direct activation of I81R BAK
T2 construct: C-terminus truncated recombinant human BAK containing C-terminal 6× histidine tag (MEAS-BAK); made in house; host or cells: E. coli T7 Express pLac I/Y
T2 sequence (Q16611 1-186 I81R limits assumed): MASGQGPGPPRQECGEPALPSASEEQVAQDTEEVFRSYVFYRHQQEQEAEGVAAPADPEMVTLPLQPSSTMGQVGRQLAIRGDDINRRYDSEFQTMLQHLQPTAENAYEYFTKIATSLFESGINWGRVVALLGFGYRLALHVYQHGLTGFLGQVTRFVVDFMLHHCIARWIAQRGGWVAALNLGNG
Experimental: We next compared activation of mutant BAK receptors by WT BID BH3 and WT BAK BH3 peptide ligands. At concentrations above 1 µM, both peptide ligands would activate WT or V74A(1) BAK (Supplementary Figs. 3e, 4d, e, and Supplementary Table 1).
We performed liposome permeabilization assays as previously described[43]–[46]. […] (nickel salt) [DGS NTA(Ni), 2.5 μM final concentration in each assay] (Avanti Polar Lipids). We prepared 12.5 mM fluorophore; 8-aminonaphthalene-1, 3, 6-trisulfonic acid, disodium salt (ANTS) and 45 mM quencher; p-xylene-bis-pyridiniumbromide (DPX) in LUV buffer (10 mM HEPES pH 6.8, 200 mM KCl and 5 mM MgCl2). We mixed the lipid film in ANTS/DPX solution by vortexing and sonication (~15 min) followed by extrusion through polycarbonate membrane of 2 μm pore size (Avanti Polar lipids) to generate homogenous large unilamellar vesicles (LUVs). We separated LUVs from free ANTS/DPX by S500 size exclusion chromatography and stored them at 4 °C in the dark. We prepared peptide and protein dilutions in 96-well black flat bottom plates (Costar) kept on ice. ANTS release from permeabilized liposomes causes an increase in fluorescence, which we monitored at 37 °C for 90 min using a CLARIOSTAR microplate reader (BMG Labtech) set at excitation and emission wavelengths of 360 and 530 nm, respectively. We normalized the data relative to maximum and minimum fluorescence induced by 3% CHAPS and buffer controls, respectively. We quantified liposome permabilization by integrating area under curve (AUC) of normalized traces based on the Simpson’s equation, and analyzed that data in Excel and GraphPad Prism. AUC measurements reflect the kinetic and extent of liposome permeabilization and provide quantitative means for comparison between different experimental conditions (e.g., BAK mutants with gross or partial variation in activity). Variability in permeabilization of different liposomes is common and our analyses compare among conditions investigated with the same liposomes. […]

Human BAK-∆TM-His6 (BAK) = target: T3, Human BAK-∆TM-His6 (BAK) (Homo sapiens, UniProt Q16611); test: Liposome permeabilization assay (ANTS/DPX dye release from LUVs): activation of WT BAK by BH3 peptides; type: biochemical; details: 50 nM BAK; EC50 from AUC vs peptide dose, data in Supplementary Figure 7c; 37 °C, 90 min; read-out: Liposome permeabilization EC50
T3 construct: C-terminus truncated recombinant human BAK containing C-terminal 6× histidine tag (MEAS-BAK); made in house; host or cells: E. coli T7 Express pLac I/Y
T3 sequence (Q16611 1-186 limits assumed): T2 sequence (Q16611 1-186 I81R limits assumed) with R81I
Experimental: We performed liposome permeabilization assays as previously described[43]–[46]. […] We mixed the lipid film in ANTS/DPX solution by vortexing and sonication (~15 min) followed by extrusion through polycarbonate membrane of 2 μm pore size (Avanti Polar lipids) to generate homogenous large unilamellar vesicles (LUVs). We separated LUVs from free ANTS/DPX by S500 size exclusion chromatography and stored them at 4 °C in the dark. We prepared peptide and protein dilutions in 96-well black flat bottom plates (Costar) kept on ice. […] We quantified liposome permabilization by integrating area under curve (AUC) of normalized traces based on the Simpson’s equation, and analyzed that data in Excel and GraphPad Prism. AUC measurements reflect the kinetic and extent of liposome permeabilization and provide quantitative means for comparison between different experimental conditions (e.g., BAK mutants with gross or partial variation in activity).

MEAS-BAK-His6 = target: T4, MEAS-BAK-His6 (Homo sapiens, UniProt Q16611); test: Surface plasmon resonance; type: binding; details: 20 °C; MEAS-BAK-His6 captured on Ni-NTA HisCap chip; three-fold peptide dilution series injected in triplicate; 1:1 interaction model; read-out: SPR KD
T4 construct: C-terminus truncated recombinant human BAK containing C-terminal 6× histidine tag (MEAS-BAK); made in house; host or cells: E. coli T7 Express pLac I/Y
T4 sequence (Q16611 1-186 limits assumed): T2 sequence (Q16611 1-186 I81R limits assumed) with R81I
Experimental: We conducted SPR experiments at 20 °C using a Pioneer FE optical biosensor (ForteBio) amd histidine-tagged MEAS-BAK-His6 immobilized on polycarboxylate hydrogel-coated gold chips preimmobilized with nitrilotriacetic acid (HisCap chips; ForteBio). We primed the chip in chelating buffer (10 mM HEPES pH 7.4, 150 mM NaCl, 50 µM EDTA, 0.005% Tween20) and preconditioned it at 10 µL/min with three 60 s injections of wash buffer (10 mM HEPES pH 8.3, 150 mM NaCl, 350 mM EDTA, 0.05% Tween20) and one 60 s injection of chelating buffer before charging with a 60 s injection of 500 µM NiCl2 in chelating buffer. After priming into binding buffer (20 mM HEPES pH 8.0, 200 mM NaCl, 1 mM TCEP, 0.01% Tween20), we injected BAK to achieve ~500 RU of captured protein. As reference cell, we charged one flow cell on the chip with Ni^2+ without adding protein. […] We included a series of buffer-only (blank) injections throughout the experiment to account for instrumental noise. […] We processed, double-referenced, solvent corrected, and analyzed the data using the software package Qdat (version 4.3.1.2, ForteBio). We determined kinetic rate constants and affinities by fitting the data to a 1:1 interaction model.

[1] = tested on: BCL2allKO HCT116 cells reconstituted with Dox-inducible mC-BAK; test: Dox-induced cell death by IncuCyte imaging of SYTOX Green uptake (autoactivation); type: cell-based, human; details: qVD 40 µM
Source text: For mammalian cell culture experiments, we cloned the full length human BAK cDNA into pCR 2.1 TOPO vector, mutated BAK as needed, and PCR amplified the BAK gene for cloning into the BamHI and NotI sites of pRETROX mCherry vector for retroviral transduction. Amplification and mutagenesis primers are included in Supplementary Table 4. To test direct BAK activation and BAK autoactivation in cells, we produced cells stably expressing mCherry-human BAK (mC-BAK) ± human BID (BID) on a genetic background devoid of the entire BCL-2 family repertoire (all 17 BCL-2 genes), BCL2allKO HCT116, as described by the Xu Luo laboratory. […] To enrich for populations of cells that express mC-BAK, we treated cells with low Dox dose (25 ng/mL) and fluorescence-activated cell sorted (FACS) the mCherry positive cells. […]
We seeded cells in 24-well (100,000 cells/well), 96-well (15,000 cells/well), or 384-well (10,000 cells/well) plates coated with 10 µg/mL fibronectin. After ≥24 h of attachment and recovery, we induced cell death with Dox (up to 1000 ng/mL) and monitored SYTOX Green (25 nM) uptake by Incucyte imaging. […] We monitored Incucyte imaging for up to 48 h, followed by endpoint FACS analysis to measure the extent of cell death based on SYTOX Green positive cells on FACSCalibur systems (BD Biosciences). As expected, cells with low mCherry fluorescence were refractory to cell death.

Row | Kd (I81R BAK) [µM] | EC50 (I81R(3) BAK) [µM] | EC50 (Human BAK-∆TM-His6 (BAK)) [µM] | Kd (MEAS-BAK-His6) [µM] | SMILES | effect on cell death [1]
1 | 1.34 | ~5 | 0.079 ± 0.049 | 0.506 ± 0.001 | CC[C@H](C)[C@H](NC(=O)[C@H](CC(N)=O)NC(=O)[C@H](CCCNC(=N)N)NC(=O)[C@@H](NC(=O)[C@@H](NC(=O)[C@H](CC(=O)O)NC(=O)[C@H](CCC(=O)O)NC(C)=O)[C@@H](C)CC)[C@@H](C)CC)C(=O)N[C@@H](C)C(=O)N[C@@H](CCCNC(=N)N)C(=O)N[C@@H](Cc1c[nH]cn1)C(=O)N[C@@H](CC(C)C)C(=O)N[C@@H](C)C(=O)N[C@@H](CCC(N)=O)C(=O)N[C@@H](CCSC)C(=O)NCC(=O)N[C@@H](CC(=O)O)C(=O)N[C@@H](CO)C(=O)N[C@@H](CCSC)C(=O)N[C@@H](CC(=O)O)C(=O)N[C@@H](CCCNC(=N)N)C(=O)N[C@@H](CO)C(=O)N[C@@H](Cc1c[nH]c2ccccc12)C(N)=O [M(3)W(5)] | 
2 |  |  |  |  | CC(C)[C@H](NC(=O)c1ccc2ccccc2n1)C(=O)N[C@@H](CC(=O)O)C(=O)COc1c(F)cccc1F [qVD, reference compound] | blocked cell death
